Data set [1] is described as follows: refractive index (Na D-line) (dimensionless). The note with it: 293.15 K; 101.33 kPa; Liquid; Standard Abbe refractometry.
The conditions of data set [2]: Liquid; for mass density: 293.15 K, 101.33 kPa, Vibrating tube method; for vapor or sublimation pressure: Ebulliometric method (Recirculating still).

Numbers after ± are expanded uncertainties.

Consider `C=CC#N` [acrylonitrile], for which, in data set [1], the refractive index (as a rule, the speed of light in vacuum divided by its phase velocity in the sample) turned out to be 1.3909 ± 0.0007. Also, the mass density (commonly mass per unit of volume) in data set [2] is 806 ± 0.2 kg/m3. The vapor or sublimation pressure (in general, the pressure of vapour in equilibrium with the condensed phase) in data set [2] (350.15 K) was determined as 96.5 ± 9.7 kPa.
On to `CCO` [ethanol], for which the refractive index in data set [1] was 1.361 ± 0.0007. In addition, in data set [2], the mass density turned out to be 788.9 ± 0.2 kg/m3. Further, in data set [2] (351.15 K), the “vapor or sublimation pressure” value is reported as 96.5 ± 9.7 kPa.
For `CCCCCCCO` [heptan-1-ol], the “vapor or sublimation pressure” value in data set [2] (449.15 K) amounted to 96.5 ± 9.7 kPa.
For `O=[N+]([O-])c1ccccc1` [nitrobenzene], the refractive index in data set [1] was determined as 1.5529 ± 0.0007. In addition, in data set [2], the mass density amounted to 1198.8 ± 0.2 kg/m3. The “vapor or sublimation pressure” value in data set [2] (483.15 K) worked out at 96.5 ± 9.7 kPa.

(Values after the NIST ThermoML archive (doi:10.1021/je400214b).)
